Source: patent US10556865B2, “Synergistic herbicidal composition containing certain pyridine or pyrimidine carboxylic acids and certain cereal and rice herbicides” (Dow AgroSciences, LLC, priority 2007, dated 2020)
Values joined by “and” are separate entries in the source; they are usually repeats but may differ in a detail not shown here. Identical values can stand only once.

Tests used:
[1] = system: yellow foxtail (PESGL); test: Postemergence herbicidal activity of mixtures in cereal crops (greenhouse, visual injury); format: in vivo, Pennisetum americanum
Protocol: Seeds of the desired test plant species were planted in Sun Gro MetroMix® 306 planting mixture, which typically has a pH of 6.0 to 6.8 and an organic matter content of about 30 percent, in plastic pots with a surface area of 103.2 square centimeters (cm^2). […] The plants were grown for 7-36 days in a greenhouse with an approximate 14 hour photoperiod which was maintained at about 18° C. during the day and 17° C. during the night. Nutrients and water were added on a regular basis and supplemental lighting was provided with overhead metal halide 1000-Watt lamps as necessary. The plants were employed for testing when they reached the second or third true leaf stage.
Treatments consisted of compound (as listed in Tables 1 through 64) and a second cereal herbicide alone and in combination. […] The concentrated stock solutions were diluted to 1.5 mg ai/mL with the addition of 2 volumes of an aqueous mixture containing acetone, water, isopropyl alcohol, DMSO, Agri-dex crop oil concentrate, and Triton® X-77 surfactant in a 64.7:26.0:6.7:2.0:0.7:0.01 v/v ratio. A dilution solution was prepared by mixing 1 volume of 97:3 v/v acetone/DMSO and 2 volumes of an aqueous mixture containing acetone, water, isopropyl alcohol, DMSO, Agri-dex crop oil concentrate, and Triton® X-77 surfactant in a 64.7:26.0:6.7:2.0:0.7:0.01 v/v ratio. Compound requirements are based upon a 12 mL application volume at a rate of 187 liters per hectare (L/ha). […] Formulated compounds were applied to the plant material with an overhead Mandel track sprayer equipped with 8002E nozzles calibrated to deliver 187 L/ha over an application area of 0.503 square meters (m^2) at a spray height of 18 inches […] above average plant canopy. Control plants were sprayed in the same manner with the solvent blank.
The treated plants and control plants were placed in a greenhouse as described above and watered by sub-irrigation to prevent wash-off of the test compounds. After 20-22 days, the condition of the test plants as compared with that of the control plants was determined visually and scored on a scale of 0 to 100 percent where 0 corresponds to no injury and 100 corresponds to complete kill.
Colby's equation was used to determine the herbicidal effects expected from the mixtures (Colby, S. R. 1967. Calculation of the synergistic and antagonistic response of herbicide combinations. Weeds 15:20-22.).
The following equation was used to calculate the expected activity of mixtures containing two active ingredients, A and B: Expected=A+B−(A×B/100)

[2] = system: Scirpus maritimus L. (SCPMA); test: Postemergence herbicidal mixtures for weed control in direct seeded rice (greenhouse, visual % injury); format: in vivo; conditions: SCPMA
[3] = system: Cyperus esculentus L. (CYPES); test: as above; format: in vivo; conditions: for % Injury Ob: CYPES
[4] = system: Leptochloa chinensis (L.) NEES (LEFCH); test: as above; format: in vivo; conditions: for % Injury Ob: LEFCH
[5] = system: Polygonum persicaria L. (POLPE); test: as above; format: in vivo
[6] = system: Brachiaria platyphylla (BRISEB.) NASH (BRAPP); test: as above; format: in vivo

COC(=O)c1nc(-c2ccc(Cl)c(OC)c2F)nc(N)c1Cl [Compound B Methyl, 6-amino-5-chloro-2-(4-chloro-2-fluoro-3-methoxyphenyl)pyrimidine-4-carboxylic acid methyl ester]
PESGL Ob ([1]; 8.75 g/ha): 60% | PESGL Ob ([1]; 17.5 g/ha): 65% | PESGL Ob ([1]; 35 g/ha): 65% | PESGL Ob ([1]; 70 g/ha): 70%

COC(=O)c1nc(-c2ccc(Cl)c(OC)c2F)cc(N)c1Cl [Compound A Methyl, 4-amino-3-chloro-6-(4-chloro-2-fluoro-3-methoxyphenyl)pyridine-2-carboxylic acid methyl ester]
% Injury Ob ([2]; 4.38 g/ha alone): 0% | % Injury Ob ([2]; 8.75 g/ha alone): 10% | % Injury 11 DAA CYPES Ob ([3]; alone 8.75 g/ha): 60% | % Injury 11 DAA CYPES Ob ([3]; alone 17.5 g/ha): 70% | % Injury 21 DAA CYPES Ob ([3]; alone 8.75 g/ha): 100% | % Injury 21 DAA CYPES Ob ([3]; alone 17.5 g/ha): 99% | % Injury Ob ([3]; 4.38 g/ha alone): 40% | % Injury Ob ([3]; 8.75 g/ha alone): 60% | % Injury CYPES Ob ([3]; alone 4.38 g/ha): 70% and 85% | % Injury Ob ([4]; 17.5 g/ha alone): 75% and 50% | % Injury Ob ([4]; 35 g/ha alone): 90% | % Injury LEFCH Ob ([4]; alone 4.38 g/ha): 30% | % Injury LEFCH Ob ([4]; alone 8.75 g/ha): 40% | % Injury POLPE Ob ([5]; alone 8.75 g/ha): 50% | % Injury POLPE Ob ([5]; alone 17.5 g/ha): 90% | % Injury Ob ([6]; 4.38 g/ha alone): 60% | % Injury Ob ([6]; 8.75 g/ha alone): 60%
